Laboratory results published in the supplement of paper PMC10307832.

What was measured:
Test in all cases: relative viability (nuclei count vs DMSO), 5 days (fraction); higher = more cells survive
[1] = compound: CN(C)CC1=CC(=CC=C1)N=C(C2=CC=CC=C2)C3=C(NC4=C3C=CC(=C4)C(=O)N(C)C)O
Method in brief: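 Five library-drug doses, separated by factors of √10, were pinned into 1536-well plates holding lung cancer cell lines after an overnight stay at 37 °C. Cells were fixed, permeabilised and Hoechst-stained in one step after 5 days without medium change, then imaged at 4×. Viability compares treated-well with vehicle-well nuclei, counted in MetaXpress, as a median across plates. Passing plates had control CV below 25% and at least one doubling.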

[2] = compound: CN(C)CC1=CC(=CC=C1)N=C(C2=CC=CC=C2)C3=C(NC4=C3C=CC(=C4)C(=O)N(C)C)O + O=C(CCCCCCC(=O)Nc1ccccc1)NO [Vorinostat] (partner 1 µM)
Method in brief: (§1)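 Dosing by pin tool came one day after lung cancer cell lines were seeded in 1536-well plates, using either one drug or a fixed anchor-drug dose plus five library-drug doses (not always all listed) in √10 steps. After 5 days, nuclei were counted on 4× images. Relative viability is treated-well nuclei count divided by vehicle-well nuclei count, and values are medians of duplicate plates.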

[3] = compound: CN(C)CC1=CC(=CC=C1)N=C(C2=CC=CC=C2)C3=C(NC4=C3C=CC(=C4)C(=O)N(C)C)O + CC(=O)c1c(C)c2cnc(Nc3ccc(N4CCNCC4)cn3)nc2n(C2CCCC2)c1=O [Palbociclib] (partner 0.5 µM)
Method in brief: as §1

[4] = compound: CN(C)CC1=CC(=CC=C1)N=C(C2=CC=CC=C2)C3=C(NC4=C3C=CC(=C4)C(=O)N(C)C)O + CC(=O)Nc1cccc(-n2c(=O)n(C3CC3)c(=O)c3c(Nc4ccc(I)cc4F)n(C)c(=O)c(C)c32)c1 [Trametinib] (partner 0.02 µM)
Method in brief: as §1

[5] = compound: CN(C)CC1=CC(=CC=C1)N=C(C2=CC=CC=C2)C3=C(NC4=C3C=CC(=C4)C(=O)N(C)C)O + Cc1cc(Nc2cc(N3CCN(C)CC3)nc(Sc3ccc(NC(=O)C4CC4)cc3)n2)n[nH]1 [Tozasertib] (partner 0.1 µM)
Method in brief: as §1

[6] = compound: CN(C)CC1=CC(=CC=C1)N=C(C2=CC=CC=C2)C3=C(NC4=C3C=CC(=C4)C(=O)N(C)C)O + NC(=O)Nc1cc(-c2cccc(F)c2)sc1C(=O)N[C@H]1CCCNC1 [AZD7762] (partner 0.2 µM)
Method in brief: as §1

[7] = compound: CN(C)CC1=CC(=CC=C1)N=C(C2=CC=CC=C2)C3=C(NC4=C3C=CC(=C4)C(=O)N(C)C)O + CCNC(=O)c1noc(-c2cc(C(C)C)c(O)cc2O)c1-c1ccc(CN2CCOCC2)cc1 [Luminespib] (partner 0.01 µM)
Method in brief: as §1

[8] = compound: CN(C)CC1=CC(=CC=C1)N=C(C2=CC=CC=C2)C3=C(NC4=C3C=CC(=C4)C(=O)N(C)C)O + COc1cccc2cc(-c3nc([C@H]4CC[C@H](C(=O)O)CC4)n4ncnc(N)c34)[nH]c12 [OSI-027] (partner 0.5 µM)
Method in brief: as §1

[9] = compound: CN(C)CC1=CC(=CC=C1)N=C(C2=CC=CC=C2)C3=C(NC4=C3C=CC(=C4)C(=O)N(C)C)O + O=C(c1cc(Cc2n[nH]c(=O)c3ccccc23)ccc1F)N1CCN(C(=O)C2CC2)CC1 [Olaparib] (partner 8 µM)
Method in brief: as §1

[10] = compound: CN(C)CC1=CC(=CC=C1)N=C(C2=CC=CC=C2)C3=C(NC4=C3C=CC(=C4)C(=O)N(C)C)O + Nc1nc2[nH]cc(CCc3ccc(C(=O)N[C@@H](CCC(=O)O)C(=O)O)cc3)c2c(=O)[nH]1 [Pemetrexed] (partner 0.2 µM)
Method in brief: as §1

[11] = compound: CN(C)CC1=CC(=CC=C1)N=C(C2=CC=CC=C2)C3=C(NC4=C3C=CC(=C4)C(=O)N(C)C)O + COc1cc2c(Oc3ccc(NC(=O)C4(C(=O)Nc5ccc(F)cc5)CC4)cc3F)ccnc2cc1OCCCN1CCOCC1 [Foretinib] (partner 0.25 µM)
Method in brief: as §1

[12] = compound: CN(C)CC1=CC(=CC=C1)N=C(C2=CC=CC=C2)C3=C(NC4=C3C=CC(=C4)C(=O)N(C)C)O + N=C(N)NC(=N)NCCc1ccccc1 [Phenformin] (partner 250 µM)
Method in brief: as §1

[13] = compound: CN(C)CC1=CC(=CC=C1)N=C(C2=CC=CC=C2)C3=C(NC4=C3C=CC(=C4)C(=O)N(C)C)O + Nc1ncn([C@H]2C[C@H](O)[C@@H](CO)O2)c(=O)n1 [Decitabine] (partner 2 µM)
Method in brief: as §1

[14] = compound: CN(C)CC1=CC(=CC=C1)N=C(C2=CC=CC=C2)C3=C(NC4=C3C=CC(=C4)C(=O)N(C)C)O + Cc1nc(Nc2ncc(C(=O)Nc3c(C)cccc3Cl)s2)cc(N2CCN(CCO)CC2)n1 [Dasatinib] (partner 0.075 µM)
Method in brief: as §1

## NCI-H2342
[1]; 0.08 µM
  relative viability: 1.02
[1]; 0.253 µM
  relative viability: 1.04
[1]; 0.8 µM
  relative viability: 0.904
[1]; 2.53 µM
  relative viability: 1.15
[1]; 8 µM
  relative viability: 1.02
[2]; first compound 0.08 µM
  relative viability: 0.728
[2]; first compound 0.253 µM
  relative viability: 0.928
[2]; first compound 0.8 µM
  relative viability: 0.773
[2]; first compound 2.53 µM
  relative viability: 0.87
[2]; first compound 8 µM
  relative viability: 0.913
[3]; first compound 0.08 µM
  relative viability: 0.519
[3]; first compound 0.253 µM
  relative viability: 0.528
[3]; first compound 0.8 µM
  relative viability: 0.549
[3]; first compound 2.53 µM
  relative viability: 0.547
[3]; first compound 8 µM
  relative viability: 0.605
[4]; first compound 0.08 µM
  relative viability: 0.894
[4]; first compound 0.253 µM
  relative viability: 0.751
[4]; first compound 0.8 µM
  relative viability: 0.727
[4]; first compound 2.53 µM
  relative viability: 0.906
[4]; first compound 8 µM
  relative viability: 1.23
[5]; first compound 0.08 µM
  relative viability: 0.497
[5]; first compound 0.253 µM
  relative viability: 0.601
[5]; first compound 0.8 µM
  relative viability: 0.549
[5]; first compound 2.53 µM
  relative viability: 0.45
[5]; first compound 8 µM
  relative viability: 0.613
[6]; first compound 0.08 µM
  relative viability: 0.428
[6]; first compound 0.253 µM
  relative viability: 0.582
[6]; first compound 0.8 µM
  relative viability: 0.471
[6]; first compound 2.53 µM
  relative viability: 0.461
[6]; first compound 8 µM
  relative viability: 0.472
[7]; first compound 0.08 µM
  relative viability: 0.775
[7]; first compound 0.253 µM
  relative viability: 0.597
[7]; first compound 0.8 µM
  relative viability: 0.71
[7]; first compound 2.53 µM
  relative viability: 0.771
[7]; first compound 8 µM
  relative viability: 0.871
[8]; first compound 0.08 µM
  relative viability: 0.63
[8]; first compound 0.253 µM
  relative viability: 0.535
[8]; first compound 0.8 µM
  relative viability: 0.621
[8]; first compound 2.53 µM
  relative viability: 0.708
[8]; first compound 8 µM
  relative viability: 0.65
[9]; first compound 0.08 µM
  relative viability: 0.453
[9]; first compound 0.253 µM
  relative viability: 0.454
[9]; first compound 0.8 µM
  relative viability: 0.506
[9]; first compound 2.53 µM
  relative viability: 0.476
[9]; first compound 8 µM
  relative viability: 0.561
[10]; first compound 0.08 µM
  relative viability: 0.763
[10]; first compound 0.253 µM
  relative viability: 0.762
[10]; first compound 0.8 µM
  relative viability: 0.829
[10]; first compound 2.53 µM
  relative viability: 0.836
[10]; first compound 8 µM
  relative viability: 0.778
[11]; first compound 0.08 µM
  relative viability: 1.08
[11]; first compound 0.253 µM
  relative viability: 1.06
[11]; first compound 0.8 µM
  relative viability: 0.979
[11]; first compound 2.53 µM
  relative viability: 1.17
[11]; first compound 8 µM
  relative viability: 1.05
[12]; first compound 0.08 µM
  relative viability: 0.572
[12]; first compound 0.253 µM
  relative viability: 0.685
[12]; first compound 0.8 µM
  relative viability: 0.574
[12]; first compound 2.53 µM
  relative viability: 0.647
[12]; first compound 8 µM
  relative viability: 0.668
[13]; first compound 0.08 µM
  relative viability: 0.728
[13]; first compound 0.253 µM
  relative viability: 0.74
[13]; first compound 0.8 µM
  relative viability: 0.817
[13]; first compound 2.53 µM
  relative viability: 0.798
[13]; first compound 8 µM
  relative viability: 0.848
[14]; first compound 0.08 µM
  relative viability: 0.281
[14]; first compound 0.253 µM
  relative viability: 0.399
[14]; first compound 0.8 µM
  relative viability: 0.287
[14]; first compound 2.53 µM
  relative viability: 0.329
[14]; first compound 8 µM
  relative viability: 0.338

## NCI-H1623
[1]; 0.08 µM
  relative viability: 1.09
[1]; 0.253 µM
  relative viability: 0.97
[1]; 0.8 µM
  relative viability: 0.729
[1]; 2.53 µM
  relative viability: 1.04
[1]; 8 µM
  relative viability: 1.09
[5]; first compound 0.08 µM
  relative viability: 0.428
[5]; first compound 0.253 µM
  relative viability: 0.519
[5]; first compound 2.53 µM
  relative viability: 0.412
[5]; first compound 8 µM
  relative viability: 0.464
[7]; first compound 0.08 µM
  relative viability: 0.416
[7]; first compound 0.253 µM
  relative viability: 0.652
[7]; first compound 2.53 µM
  relative viability: 0.445
[7]; first compound 8 µM
  relative viability: 0.504
[8]; first compound 0.08 µM
  relative viability: 0.428
[8]; first compound 0.253 µM
  relative viability: 0.449
[8]; first compound 0.8 µM
  relative viability: 0.378
[8]; first compound 2.53 µM
  relative viability: 0.452
[8]; first compound 8 µM
  relative viability: 0.514
[11]; first compound 0.08 µM
  relative viability: 0.825
[11]; first compound 0.253 µM
  relative viability: 1.17
[11]; first compound 0.8 µM
  relative viability: 0.642
[11]; first compound 2.53 µM
  relative viability: 0.894
[11]; first compound 8 µM
  relative viability: 0.854
[12]; first compound 0.08 µM
  relative viability: 0.544
[12]; first compound 0.253 µM
  relative viability: 0.69
[12]; first compound 2.53 µM
  relative viability: 0.551
[12]; first compound 8 µM
  relative viability: 0.514
[14]; first compound 0.08 µM
  relative viability: 0.552
[14]; first compound 0.253 µM
  relative viability: 0.632
[14]; first compound 2.53 µM
  relative viability: 0.593
[14]; first compound 8 µM
  relative viability: 0.499
